According to patent publication US20200078463A1, “COMPOSITION HAVING IMPROVED WATER SOLUBILITY AND BIOAVAILABILITY” (SAMYANG BIOPHARMACEUTICALS CORPORATION, priority 2017, published 2020):
Structures can show the parent of a compound that is named as a salt.

Assay: Additive screening: dissolved sorafenib in pH 1.2 buffer by HPLC
Format: physicochemical
Conditions: 100 mg sorafenib tosylate (crystalline form III) + 10 mg additive in 1 ml pH 1.2 buffer, shaken at 1,100 rpm for 24 hours, filtered 0.45 μm
Protocol: In order to test the content of drug included in the formulation, it was analyzed by HPLC using the following test method.
(1) Buffer preparation: After dissolving 0.77 g ammonium acetate in 1000 ml of water, the pH of the solution was adjusted to 6.8±0.05 using ammonia solutions.
(2) The solution of (1) and acetonitrile were mixed at 40:60 (v/v), and the solution filtered with a filter paper having a pore size of 0.45 μm and degassed was used as a mobile phase.
The buffer solution (1) and acetonitrile were mixed at 30:70 (v/v) to obtain a dilution solution.
1 ml of the standard solution (300 μg/ml) was precisely taken, and 2 ml of the diluted solution was added to prepare a standard solution (100 μg/ml). 1 ml of the standard solution (300 μg/ml) was precisely taken, and 4 ml of the diluted solution was added to prepare a standard solution (60 μg/ml). 1 ml of the standard solution (100 μg/ml) was precisely taken, and 4 ml of the diluted solution was added to prepare a standard solution (20 μg/ml). A calibration curve was drawn using the four standard solutions and used to calculate the content of the test solution.
Detector: ultraviolet absorbance photometer (wavelength 265 nm)
Column: Eclipse XDB-C18, 4.6 mm×150 mm, 5 μm or equivalent column
Column temperature: 27° C.
It was shaken at 1,100 rpm for 24 hours. […]

Concentration of dissolved sorafenib: 100 ng/mL
Structure (SMILES): CNC(=O)c1cc(Oc2ccc(NC(=O)Nc3ccc(Cl)c(C(F)(F)F)c3)cc2)ccn1 [No polymer, sorafenib tosylate]
